Data taken from paper PMC6576746, “Rational discovery of dual-indication multi-target PDE/Kinase inhibitor for precision anti-cancer therapy using structural systems pharmacology” (PLoS Computational Biology, 2019).

Experiments:
Assay in all cases: biochemical
Parameters in all cases: DiscoverX KinomeScan competition binding assay across human kinases; per cent of control at 10 and 100 uM
HIPK1 = HIPK1 (Homo sapiens, UniProt Q86Z02); conditions: competition binding, % of control
How it was run: (§1)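 Binding is expressed as %control, normalised between positive and negative control signals. The compound (levosimendan) was tested at 10 μM and 100 μM in the DiscoverX KinomeScan competition binding format against human kinases.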

ERBB4 = ERBB4 (Homo sapiens, UniProt Q15303); conditions: competition binding, % of control; read-out: Percent Control (100 uM Levosimendan)
How it was run: as §1

MYLK4 = molecular target: T1, MYLK4 (Homo sapiens, UniProt Q86YV6); conditions: competition binding, % of control
T1 sequence (Q86YV6 1-388): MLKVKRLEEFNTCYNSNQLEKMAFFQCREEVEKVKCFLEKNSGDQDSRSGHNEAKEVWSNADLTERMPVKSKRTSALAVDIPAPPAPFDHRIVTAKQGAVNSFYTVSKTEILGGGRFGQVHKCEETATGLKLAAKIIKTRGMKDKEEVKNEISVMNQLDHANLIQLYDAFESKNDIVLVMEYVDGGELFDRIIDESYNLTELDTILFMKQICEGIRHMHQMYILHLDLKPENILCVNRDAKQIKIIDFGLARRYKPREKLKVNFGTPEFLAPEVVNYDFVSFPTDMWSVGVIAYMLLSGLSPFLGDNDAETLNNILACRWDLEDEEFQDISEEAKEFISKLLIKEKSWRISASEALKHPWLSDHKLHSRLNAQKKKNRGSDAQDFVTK
How it was run: as §1

PKN2 = PKN2 (Homo sapiens, UniProt Q16513); conditions: competition binding, % of control
How it was run: as §1

[1] = molecular target: T2, JAK3(JH1domain-catalytic) (Homo sapiens, UniProt P52333); conditions: competition binding, % of control; read-out: Percent Control (100 uM Levosimendan)
T2 construct: JH1domain-catalytic
How it was run: as §1

GSK3B = GSK3B (Homo sapiens, UniProt P49841); conditions: competition binding, % of control; read-out: Percent Control (100 uM Levosimendan)
How it was run: as §1

PKMYT1 = PKMYT1 (Homo sapiens, UniProt Q99640); conditions: competition binding, % of control; read-out: Percent Control (100 uM Levosimendan)
How it was run: as §1

MST4 = molecular target: T3, MST4 (Homo sapiens, UniProt Q9P289); conditions: competition binding, % of control; read-out: Percent Control (100 uM Levosimendan)
T3 construct: gene STK26
How it was run: as §1

PIK3CB = PIK3CB (Homo sapiens, UniProt P42338); conditions: competition binding, % of control; read-out: Percent Control (100 uM Levosimendan)
How it was run: as §1

MET(M1250T) = MET(M1250T) (Homo sapiens, UniProt P08581, M1250T); conditions: competition binding, % of control; read-out: Percent Control (100 uM Levosimendan)
How it was run: as §1

PAK4 = PAK4 (Homo sapiens, UniProt O96013); conditions: competition binding, % of control; read-out: Percent Control (100 uM Levosimendan)
How it was run: as §1

BRAF(V600E) = BRAF(V600E) (Homo sapiens, UniProt P15056, V600E); conditions: competition binding, % of control; read-out: Percent Control (100 uM Levosimendan)
How it was run: as §1

EGFR(T790M) = EGFR(T790M) (Homo sapiens, UniProt P00533, T790M); conditions: competition binding, % of control
How it was run: as §1

DLK = molecular target: T4, DLK (Homo sapiens, UniProt Q12852); conditions: competition binding, % of control; read-out: Percent Control (100 uM Levosimendan)
T4 construct: gene MAP3K12
How it was run: as §1

TXK = TXK (Homo sapiens, UniProt P42681); conditions: competition binding, % of control; read-out: Percent Control (100 uM Levosimendan)
How it was run: as §1

CDK9 = CDK9 (Homo sapiens, UniProt P50750); conditions: competition binding, % of control; read-out: Percent Control (100 uM Levosimendan)
How it was run: as §1

[2] = read-out: Percent Control (10 uM Levosimendan)
[3] = read-out: Percent Control (100 uM Levosimendan)

Chain of EGFR(T790M) (P00533 whole entry T790M): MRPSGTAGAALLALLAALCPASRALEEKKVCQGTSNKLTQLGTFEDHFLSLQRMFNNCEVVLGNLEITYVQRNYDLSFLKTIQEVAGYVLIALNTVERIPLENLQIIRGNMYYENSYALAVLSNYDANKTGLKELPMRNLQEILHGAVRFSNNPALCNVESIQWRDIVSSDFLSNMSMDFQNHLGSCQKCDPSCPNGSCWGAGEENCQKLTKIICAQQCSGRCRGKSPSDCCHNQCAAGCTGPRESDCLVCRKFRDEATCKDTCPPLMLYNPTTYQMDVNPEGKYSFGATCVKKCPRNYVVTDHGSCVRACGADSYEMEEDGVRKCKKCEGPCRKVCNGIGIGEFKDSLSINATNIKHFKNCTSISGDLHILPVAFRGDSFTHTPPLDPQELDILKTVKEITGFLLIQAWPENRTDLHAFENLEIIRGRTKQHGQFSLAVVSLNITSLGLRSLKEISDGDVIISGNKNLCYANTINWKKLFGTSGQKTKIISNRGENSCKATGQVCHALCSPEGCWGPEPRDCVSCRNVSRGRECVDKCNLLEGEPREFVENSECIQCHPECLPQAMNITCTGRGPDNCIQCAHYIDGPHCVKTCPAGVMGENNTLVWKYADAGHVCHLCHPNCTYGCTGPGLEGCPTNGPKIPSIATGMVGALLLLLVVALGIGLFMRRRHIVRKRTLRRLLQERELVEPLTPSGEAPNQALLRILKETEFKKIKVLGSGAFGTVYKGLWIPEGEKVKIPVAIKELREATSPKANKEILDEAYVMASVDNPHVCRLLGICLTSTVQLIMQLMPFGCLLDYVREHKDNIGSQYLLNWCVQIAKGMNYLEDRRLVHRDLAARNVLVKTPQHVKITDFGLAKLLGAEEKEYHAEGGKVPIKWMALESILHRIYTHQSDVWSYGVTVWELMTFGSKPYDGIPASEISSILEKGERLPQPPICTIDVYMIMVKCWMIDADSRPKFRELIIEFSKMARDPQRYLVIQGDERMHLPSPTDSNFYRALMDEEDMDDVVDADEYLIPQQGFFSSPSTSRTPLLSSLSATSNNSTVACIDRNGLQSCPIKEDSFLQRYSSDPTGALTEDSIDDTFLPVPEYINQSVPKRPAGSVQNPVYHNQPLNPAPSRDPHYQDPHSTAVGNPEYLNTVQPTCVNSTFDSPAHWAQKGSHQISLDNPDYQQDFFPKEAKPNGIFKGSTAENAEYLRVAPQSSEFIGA
Chain of HIPK1 (Q86Z02 whole entry): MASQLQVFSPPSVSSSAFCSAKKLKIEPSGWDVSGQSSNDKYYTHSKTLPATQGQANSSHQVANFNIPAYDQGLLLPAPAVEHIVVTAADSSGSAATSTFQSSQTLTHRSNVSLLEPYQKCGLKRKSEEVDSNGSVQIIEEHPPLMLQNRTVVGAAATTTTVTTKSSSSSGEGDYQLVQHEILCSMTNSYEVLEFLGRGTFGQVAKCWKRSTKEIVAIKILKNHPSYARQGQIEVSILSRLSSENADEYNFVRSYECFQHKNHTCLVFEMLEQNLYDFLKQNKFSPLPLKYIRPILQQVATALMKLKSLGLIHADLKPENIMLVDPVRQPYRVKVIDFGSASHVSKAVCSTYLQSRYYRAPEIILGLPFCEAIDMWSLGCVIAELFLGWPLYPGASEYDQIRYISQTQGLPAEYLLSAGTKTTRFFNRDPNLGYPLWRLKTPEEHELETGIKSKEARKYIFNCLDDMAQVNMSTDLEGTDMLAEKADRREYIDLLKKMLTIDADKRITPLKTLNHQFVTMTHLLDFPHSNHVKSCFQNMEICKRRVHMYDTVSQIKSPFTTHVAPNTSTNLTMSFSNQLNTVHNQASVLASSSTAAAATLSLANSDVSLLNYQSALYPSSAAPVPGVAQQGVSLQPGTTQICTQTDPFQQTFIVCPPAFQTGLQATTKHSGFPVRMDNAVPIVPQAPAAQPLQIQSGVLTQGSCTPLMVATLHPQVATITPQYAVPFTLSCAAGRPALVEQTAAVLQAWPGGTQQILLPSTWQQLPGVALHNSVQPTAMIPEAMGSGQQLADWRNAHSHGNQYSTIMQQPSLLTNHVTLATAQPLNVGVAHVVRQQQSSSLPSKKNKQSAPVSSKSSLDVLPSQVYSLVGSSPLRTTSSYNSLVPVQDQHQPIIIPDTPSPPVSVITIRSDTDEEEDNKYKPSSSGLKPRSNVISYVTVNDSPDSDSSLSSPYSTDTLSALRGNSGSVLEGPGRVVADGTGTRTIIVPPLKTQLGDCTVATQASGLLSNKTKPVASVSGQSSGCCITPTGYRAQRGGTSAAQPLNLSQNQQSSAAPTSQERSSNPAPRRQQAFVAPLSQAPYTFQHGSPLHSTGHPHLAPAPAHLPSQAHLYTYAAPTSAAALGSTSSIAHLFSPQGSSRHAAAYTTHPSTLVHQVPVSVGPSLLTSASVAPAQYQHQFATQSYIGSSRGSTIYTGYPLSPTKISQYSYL
Chain of PKN2 (Q16513 whole entry): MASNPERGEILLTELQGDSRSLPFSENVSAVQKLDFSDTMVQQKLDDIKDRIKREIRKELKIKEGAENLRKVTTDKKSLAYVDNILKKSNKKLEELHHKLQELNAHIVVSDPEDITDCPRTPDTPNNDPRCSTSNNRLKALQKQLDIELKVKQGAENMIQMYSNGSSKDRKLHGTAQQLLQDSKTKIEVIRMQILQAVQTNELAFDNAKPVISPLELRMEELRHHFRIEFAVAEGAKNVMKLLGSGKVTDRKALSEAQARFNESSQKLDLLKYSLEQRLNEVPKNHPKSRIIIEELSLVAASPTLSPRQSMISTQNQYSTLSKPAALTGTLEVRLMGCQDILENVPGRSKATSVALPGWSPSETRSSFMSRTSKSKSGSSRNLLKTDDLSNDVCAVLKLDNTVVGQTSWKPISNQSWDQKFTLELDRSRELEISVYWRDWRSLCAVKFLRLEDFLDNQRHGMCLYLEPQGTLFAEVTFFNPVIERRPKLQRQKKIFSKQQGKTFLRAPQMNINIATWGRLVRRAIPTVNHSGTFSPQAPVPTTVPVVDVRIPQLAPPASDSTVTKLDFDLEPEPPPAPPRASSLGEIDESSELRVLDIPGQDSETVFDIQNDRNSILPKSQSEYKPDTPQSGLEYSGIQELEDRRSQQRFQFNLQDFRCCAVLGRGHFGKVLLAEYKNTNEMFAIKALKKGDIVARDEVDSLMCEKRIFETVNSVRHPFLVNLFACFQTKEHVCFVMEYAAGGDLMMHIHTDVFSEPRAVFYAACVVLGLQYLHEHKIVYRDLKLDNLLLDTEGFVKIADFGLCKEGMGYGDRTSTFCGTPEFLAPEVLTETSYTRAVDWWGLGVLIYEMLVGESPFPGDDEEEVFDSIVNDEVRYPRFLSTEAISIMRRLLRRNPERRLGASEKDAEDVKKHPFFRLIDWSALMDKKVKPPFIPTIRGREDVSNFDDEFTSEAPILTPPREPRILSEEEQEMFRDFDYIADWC
Chain of ERBB4 (Q15303 whole entry): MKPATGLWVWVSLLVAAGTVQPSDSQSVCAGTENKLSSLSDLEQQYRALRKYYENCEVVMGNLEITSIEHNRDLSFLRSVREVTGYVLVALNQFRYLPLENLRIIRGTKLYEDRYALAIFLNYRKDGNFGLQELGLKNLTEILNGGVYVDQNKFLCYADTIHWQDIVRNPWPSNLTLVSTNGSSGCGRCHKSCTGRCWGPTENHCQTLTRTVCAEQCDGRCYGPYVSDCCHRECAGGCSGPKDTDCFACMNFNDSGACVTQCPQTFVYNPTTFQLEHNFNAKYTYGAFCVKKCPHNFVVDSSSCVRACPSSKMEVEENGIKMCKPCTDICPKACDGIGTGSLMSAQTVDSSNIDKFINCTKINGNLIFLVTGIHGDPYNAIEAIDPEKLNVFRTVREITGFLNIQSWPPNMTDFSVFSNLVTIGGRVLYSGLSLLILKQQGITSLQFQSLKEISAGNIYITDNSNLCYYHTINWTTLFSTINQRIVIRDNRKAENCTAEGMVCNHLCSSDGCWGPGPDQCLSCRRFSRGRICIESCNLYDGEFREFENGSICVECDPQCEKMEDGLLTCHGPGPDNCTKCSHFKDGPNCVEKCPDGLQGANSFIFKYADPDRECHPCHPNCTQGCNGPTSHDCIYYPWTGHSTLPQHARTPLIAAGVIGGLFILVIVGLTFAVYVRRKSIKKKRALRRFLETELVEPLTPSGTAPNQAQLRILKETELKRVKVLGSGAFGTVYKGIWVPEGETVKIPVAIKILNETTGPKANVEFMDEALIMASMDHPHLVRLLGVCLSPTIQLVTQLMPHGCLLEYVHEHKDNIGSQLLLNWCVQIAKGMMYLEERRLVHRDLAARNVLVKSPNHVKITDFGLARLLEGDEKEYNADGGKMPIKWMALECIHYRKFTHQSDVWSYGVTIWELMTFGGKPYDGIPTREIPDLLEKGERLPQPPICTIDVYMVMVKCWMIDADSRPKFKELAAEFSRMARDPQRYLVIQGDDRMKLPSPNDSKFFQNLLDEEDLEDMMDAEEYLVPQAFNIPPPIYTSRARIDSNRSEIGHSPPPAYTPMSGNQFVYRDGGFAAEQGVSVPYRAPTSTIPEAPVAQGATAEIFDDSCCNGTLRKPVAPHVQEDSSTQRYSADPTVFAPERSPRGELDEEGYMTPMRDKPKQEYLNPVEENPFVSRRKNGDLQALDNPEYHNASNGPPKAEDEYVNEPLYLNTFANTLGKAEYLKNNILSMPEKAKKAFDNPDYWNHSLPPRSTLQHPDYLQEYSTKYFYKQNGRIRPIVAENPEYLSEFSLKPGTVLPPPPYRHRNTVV
T3 sequence (Q9P289 whole entry): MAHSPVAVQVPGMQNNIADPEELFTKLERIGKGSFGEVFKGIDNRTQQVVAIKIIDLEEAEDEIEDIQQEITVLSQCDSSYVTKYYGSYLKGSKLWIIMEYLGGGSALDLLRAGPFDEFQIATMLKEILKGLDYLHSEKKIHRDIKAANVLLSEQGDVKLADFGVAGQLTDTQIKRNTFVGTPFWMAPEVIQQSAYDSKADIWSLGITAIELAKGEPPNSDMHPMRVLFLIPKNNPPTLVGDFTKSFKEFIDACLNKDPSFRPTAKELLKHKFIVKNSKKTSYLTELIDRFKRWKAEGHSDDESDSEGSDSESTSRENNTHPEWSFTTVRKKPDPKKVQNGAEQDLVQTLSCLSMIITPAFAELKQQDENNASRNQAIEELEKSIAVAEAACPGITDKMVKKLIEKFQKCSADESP

Structure (SMILES): C[C@@H]1CC(=O)NN=C1c1ccc(NN=C(C#N)C#N)cc1 [levosimendan]
- remaining binding at 10 µM (HIPK1; [2]): 95%
- remaining binding at 100 µM (HIPK1; [3]): 20%
- remaining binding at 100 µM (ERBB4): 63%
- remaining binding at 10 µM (MYLK4; [2]): 85%
- remaining binding at 100 µM (MYLK4; [3]): 24%
- remaining binding at 10 µM (PKN2; [2]): 94%
- remaining binding at 100 µM (PKN2; [3]): 49%
- remaining binding at 100 µM [1]: 75%
- remaining binding at 100 µM (GSK3B): 100%
- remaining binding at 100 µM (PKMYT1): 57%
- remaining binding at 100 µM (MST4): 71%
- remaining binding at 100 µM (PIK3CB): 100%
- remaining binding at 100 µM (MET(M1250T)): 91%
- remaining binding at 100 µM (PAK4): 89%
- remaining binding at 100 µM (BRAF(V600E)): 78%
- remaining binding at 10 µM (EGFR(T790M); [2]): 88%
- remaining binding at 100 µM (EGFR(T790M); [3]): 31%
- remaining binding at 100 µM (DLK): 62%
- remaining binding at 100 µM (TXK): 60%
- remaining binding at 100 µM (CDK9): 100%
